From patent publication US9682092B2, “Boron-containing small molecules as anti-inflammatory agents” (ANACOR PHARMACEUTICALS, INC., priority 2006, dated 2017)

For `N#Cc1ccc(Oc2ccc(B(O)O)cc2)cc1`, which melting point is on record?
Its melting point is 194 to 198 °C.

For `COc1ccc2c(c1)COB2O` [C7, 1,3-Dihydro-1-hydroxy-5-methoxy-2,1-benzoxaborole], which melting point is on record?
The melting point was 102 to 104 °C.

For `Cc1ccc2c(c1)COB2O` [C8, 1,3-Dihydro-1-hydroxy-5-methyl-2,1-benzoxaborole], which melting point is on record?
Its melting point is 124 to 128 °C.

For `OB1OCc2ccc(F)cc21` [C13, 1,3-Dihydro-6-fluoro-1-hydroxy-2,1-benzoxaborole], which melting point is on record?
The melting point was 110 to 117.5 °C.

With `N#Cc1cccc(Oc2ccc3c(c2)B(O)OC3)c1` [C19, 6-(3-Cyanophenoxy)-1,3-dihydro-1-hydroxy-2,1-benzoxaborole] as the compound, how does the melting point read?
The melting point was 146 to 149 °C.

For `OB1OCc2ccc(Oc3ccc(Cl)cc3)cc21` [C20, 6-(4-Chlorophenoxy)-1,3-dihydro-1-hydroxy-2,1-benzoxaborole], which melting point is on record?
The melting point was 119 to 130 °C.

For `OB1OCc2ccc(Oc3ccccc3)cc21` [C21, 6-Phenoxy-1,3-dihydro-1-hydroxy-2,1-benzoxaborole], which melting point is on record?
Its melting point is 95 to 99 °C.

With `OB1OCc2ccc(Sc3ccccc3)cc21` [C28, 6-Phenylthio-1,3-dihydro-1-hydroxy-2,1-benzoxaborole] as the compound, how does the melting point read?
Its melting point is 121 to 124 °C.

Which melting point does the source give for `OB1OCc2ccc(Oc3ccc(OC(F)(F)F)cc3)cc21` [C29, 6-(4-trifluoromethoxyphenoxy)-1,3-dihydro-1-hydroxy-2,1-benzoxaborole] here?
The melting point was 97 to 101 °C.

For `CN(c1ccc2c(c1)COB2O)S(=O)(=O)c1ccccc1` [C30, 5-(N-Methyl-N-phenylsulfonylamino)-1,3-dihydro-1-hydroxy-2,1-benzoxaborole], which melting point is on record?
Its melting point is 85 to 95 °C.

For `COc1ccc(Oc2ccc3c(c2)B(O)OC3)cc1` [C31, 6-(4-Methoxyphenoxy)-1,3-dihydro-1-hydroxy-2,1-benzoxaborole], which melting point is on record?
Its melting point is 126 to 129 °C.

Which melting point does the source give for `COc1ccc(Sc2ccc3c(c2)B(O)OC3)cc1` [C32, 6-(4-Methoxyphenylthio)-1,3-dihydro-1-hydroxy-2,1-benzoxaborole] here?
The melting point was 95 to 100 °C.

For `COc1ccc(S(=O)(=O)c2ccc3c(c2)B(O)OC3)cc1` [C33, 6-(4-Methoxyphenylsulfonyl)-1,3-dihydro-1-hydroxy-2,1-benzoxaborole], which melting point is on record?
The melting point was 180 to 192 °C.

Which melting point does the source give for `CCOC(=O)COc1ccc2c(c1)COB2O` [C41, Ethyl 2-(1-hydroxy-1,3-dihydrobenzo[c][1,2]oxaborol-5-yloxy)acetate] here?
The melting point was 134 to 137 °C.

For `O=C(O)COc1ccc2c(c1)COB2O` [C42, 2-(1-hydroxy-1,3-dihydrobenzo[c][1,2]oxaborol-5-yloxy)acetic acid], which melting point is on record?
Its melting point is 163 to 166 °C.

For `OB1OCc2ccc(Sc3cccs3)cc21` [C43, 6-(thiophen-2-ylthio)benzo[c][1,2]oxaborol-1(3H)-ol], which melting point is on record?
The melting point was 99 to 104 °C.

Which melting point does the source give for `OB1OCc2ccc(Sc3ccc(F)cc3)cc21` [C44, 6-(4-fluorophenylthio)benzo[c][1,2]oxaborol-1(3H)-ol] here?
The melting point was 135 to 138 °C.

With `CCCCC(=O)c1cccc(COc2ccc3c(c2)COB3O)c1` [C45, 1-(3-((1-hydroxy-1,3-dihydrobenzo[c][1,2]oxaborol-5-yloxy)methyl)phenyl)pentan-1-one] as the compound, how does the melting point read?
The melting point was 96 to 98 °C.

With `O=C(COc1ccc2c(c1)COB2O)N1CCCCC1` [C46, 2-(1-hydroxy-1,3-dihydrobenzo[c][1,2]oxaborol-5-yloxy)-1-(piperidin-1-yl)ethanone] as the compound, how does the melting point read?
Its melting point is 158 to 163 °C.

Which melting point does the source give for `O=C(COc1ccc2c(c1)COB2O)N1CCN(c2ncccn2)CC1` [C47, 2-(1-hydroxy-1,3-dihydrobenzo[c][1,2]oxaborol-5-yloxy)-1-(4-(pyrimidin-2-yl)piperazin-1-yl)ethanone] here?
The melting point was 190 to 195 °C.

For `OB1OCc2ccc(N3CCN(c4ccccn4)CC3)cc21` [C48, 6-(4-(pyridin-2-yl)piperazin-yl)benzo[c][1,2]oxaborol-1(3H)-ol], which melting point is on record?
The melting point was 135 to 138 °C.

Which melting point does the source give for `CN(C)c1ccc2c(c1)B(O)OC2` [C51, 6-(dimethylamino)benzo[c][1,2]oxaborol-1(3H)-ol] here?
The melting point was 120 to 123 °C.

With `O=C(Nc1ccc2c(c1)B(O)OC2)c1ccccc1` [C52, N-(1-hydroxy-1,3-dihydrobenzo[c][1,2]oxaborol-6-yl)benzamide] as the compound, how does the melting point read?
Its melting point is 186 to 193 °C.

For `OB1OCc2ccc(N3CCN(c4ccccc4)CC3)cc21` [C53, 6-(4-phenylpiperazin-1-yl)benzo[c][1,2]oxaborol-1(3H)-ol], which melting point is on record?
Its melting point is 159 to 161 °C.

With `OB1OCc2ccc(-n3ccc4ccccc43)cc21` [C55, 6-(1H-indol-1-yl)benzo[c][1,2]oxaborol-1(3H)-ol] as the compound, how does the melting point read?
The melting point was 135 to 140 °C.

With `OB1OCc2ccc(N3CCOCC3)cc21` [C56, 6-morpholinobenzo[c][1,2]oxaborol-1(3H)-ol] as the compound, how does the melting point read?
Its melting point is 128 to 132 °C.

Which melting point does the source give for `O=[N+]([O-])c1cc2c(cc1F)COB2O` [C58, 5-fluoro-6-nitrobenzo[c][1,2]oxaborol-1(3H)-ol] here?
The melting point was 162 to 167 °C.

With `OCc1cc2c(cc1Br)COB2O` [C59, 5-bromo-6-(hydroxymethyl)benzo[c][1,2]oxaborol-1(3H)-ol] as the compound, how does the melting point read?
Its melting point is > 257 °C.

With `OB1OCc2cc3c(cc21)COB3O` [C60, 3,7-dihydro-1,5-dihydroxy-1H,3H-Benzo[1,2-c:4,5-c′]bis[1,2]oxaborole] as the compound, how does the melting point read?
The melting point was > 250 °C.

For `O=S(=O)(Nc1ccc2c(c1)B(O)OC2)c1ccccc1` [C62, N-(1-hydroxy-1,3-dihydrobenzo[c][1,2]oxaborol-6-yl)benzenesulfonamide], which melting point is on record?
The melting point was 175 to 184 °C.

For `CC(=O)Nc1ccc2c(c1)B(O)OC2` [C63, N-(1-hydroxy-1,3-dihydrobenzo[c][1,2]oxaborol-6-yl)acetamide], which melting point is on record?
Its melting point is 176 to 185 °C.

Which melting point does the source give for `OCc1cccc2c1B(O)OC2` [C64, 7-(hydroxymethyl)benzo[c][1,2]oxaborol-1(3H)-ol] here?
Its melting point is 241 to 250 °C.

With `Cc1cccc2c1B(O)OC2` [C65, 7-methylbenzo[c][1,2]oxaborol-1(3H)-ol] as the compound, how does the melting point read?
The melting point was 107 to 111 °C.

With `OB1OCc2ccc(-n3cc(Sc4ccccc4)c4ccccc43)cc21` [C66, 6-(3-(phenylthio)-1H-indol-1-yl)benzo[c][1,2]oxaborol-1(3H)-ol] as the compound, how does the melting point read?
Its melting point is 159 to 163 °C.

For `N#CCCSc1cn(-c2ccc3c(c2)B(O)OC3)c2ccccc12` [C67, 3-(1-(1-hydroxy-1,3-dihydrobenzo[c][1,2]oxaborol-6-yl)-1H-indol-3-ylthio)propanenitrile], which melting point is on record?
The melting point was 135 to 141 °C.

With `COc1ccc2c(ccn2-c2ccc3c(c2)B(O)OC3)c1` [C68, 6-(5-methoxy-1H-indol-1-yl)benzo[c][1,2]oxaborol-1(3H)-ol] as the compound, how does the melting point read?
The melting point was 120 to 124 °C.

With `OB1OCc2cc3c(cc21)OCO3` [C69, 5,6-methylenedioxybenzo[c][1,2]oxaborol-1(3H)-ol.] as the compound, how does the melting point read?
The melting point was 185 to 189 °C.

For `Nc1cc2c(cc1F)COB2O` [C70, 6-amino-5-fluorobenzo[c][1,2]oxaborol-1(3H)-ol], which melting point is on record?
The melting point was 142 to 145 °C.

With `OB1OCc2cc(F)c(NCc3ccccc3)cc21` [C71, 6-(benzylamino)-5-fluorobenzo[c][1,2]oxaborol-1(3H)-ol] as the compound, how does the melting point read?
The melting point was 159 to 164 °C.

With `COc1ccc2c(c1)c(Sc1ccccc1)cn2-c1ccc2c(c1)B(O)OC2` [C72, 6-(5-methoxy-3-(phenylthio)-1H-indol-1-yl)benzo[c][1,2]oxaborol-1(3H)-ol] as the compound, how does the melting point read?
Its melting point is 135 to 141 °C.

With `COc1ccc2c(c1)c(SCCC#N)cn2-c1ccc2c(c1)B(O)OC2` [C73, 3-(1-(1-hydroxy-1,3-dihydrobenzo[c][1,2]oxaborol-6-yl)-5-methoxy-1H-indol-3-ylthio)propanenitrile] as the compound, how does the melting point read?
Its melting point is 149 to 154 °C.

With `N#Cc1ccc(Oc2cccc3c2B(O)OC3)cc1` [C74, 4-(1-hydroxy-1,3-dihydrobenzo[c][1,2]oxaborol-7-yloxy)benzonitrile] as the compound, how does the melting point read?
Its melting point is 148 to 153 °C.

Which melting point does the source give for `OB1OCc2ccc(-n3ccc4cc(Cl)ccc43)cc21` [C75, 6-(5-chloro-1H-indol-1-yl)benzo[c][1,2]oxaborol-1(3H)-ol] here?
The melting point was 149 to 154 °C.

Which melting point does the source give for `N#CCCSc1cn(-c2ccc3c(c2)B(O)OC3)c2ccc(Cl)cc12` [C76, 3-(5-chloro-1-(1-hydroxy-1,3-dihydrobenzo[c][1,2]oxaborol-6-yl)-1H-indol-3-ylthio)propanenitrile] here?
The melting point was > 225 °C.

For `OB1OCc2ccc(NCc3ccccc3)cc21` [C77, 6-(benzylamino)benzo[c][1,2]oxaborol-1(3H)-ol], which melting point is on record?
The melting point was 126 to 133 °C.

Which melting point does the source give for `OB1OCc2ccc(N(Cc3ccccc3)Cc3ccccc3)cc21` [C78, 6-(dibenzylamino)benzo[c][1,2]oxaborol-1(3H)-ol] here?
The melting point was 115 to 123 °C.

With `OB1OCc2ccc(-n3cc(Sc4ccccc4)c4cc(Cl)ccc43)cc21` [C80, 6-(5-chloro-3-(phenylthio)-1H-indol-1-yl)benzo[c][1,2]oxaborol-1(3H)-ol] as the compound, how does the melting point read?
The melting point was 145 to 151 °C.

For `OB1OCc2cccc(F)c21` [C86, 7-fluorobenzo[c][1,2]oxaborol-1(3H)-ol], which melting point is on record?
The melting point was 120 to 124 °C.

For `OB1OCc2ccc(Oc3ccc(C(F)(F)F)cc3)cc21` [C87, 6-(4-(trifluoromethyl)phenoxy)benzo[c][1,2]oxaborol-1(3H)-ol], which melting point is on record?
The melting point was 98 to 105 °C.

With `OB1OCc2ccc(Sc3ccc(Cl)cc3)cc21` [C88, 6-(4-chlorophenylthio)benzo[c][1,2]oxaborol-1(3H)-ol] as the compound, how does the melting point read?
The melting point was 157 to 161 °C.

For `[O-][S+](c1ccc(Cl)cc1)c1ccc2c(c1)B(O)OC2` (stereo not shown) [C89, 6-(4-chlorophenylsulfinyl)benzo[c][1,2]oxaborol-1(3H)-ol], which melting point is on record?
The melting point was 154 to 161 °C.

For `O=S(=O)(c1ccc(Cl)cc1)c1ccc2c(c1)B(O)OC2` [C90, 6-(4-chlorophenylsulfonyl)benzo[c][1,2]oxaborol-1(3H)-ol], which melting point is on record?
The melting point was 157 to 163 °C.

For `O=S(=O)(c1ccccc1)N(c1ccc2c(c1)COB2O)S(=O)(=O)c1ccccc1` [C91, N-(1-hydroxy-1,3-dihydrobenzo[c][1,2]oxaborol-5-yl)-N-(phenylsulfonyl)benzenesulfonamide], which melting point is on record?
Its melting point is 142 to 152 °C.

For `OB1OCc2ccc(Sc3ccc(C(F)(F)F)cc3)cc21` [C92, 6-(4-(trifluoromethyl)phenylthio)benzo[c][1,2]oxaborol-1(3H)-ol], which melting point is on record?
Its melting point is 111 to 113 °C.

Which melting point does the source give for `[O-][S+](c1ccc(C(F)(F)F)cc1)c1ccc2c(c1)B(O)OC2` (stereo not shown) [C93, 6-(4-(trifluoromethyl)phenylsulfinyl)benzo[c][1,2]oxaborol-1(3H)-ol] here?
The melting point was 79 to 88 °C.
